Molecular target: T1, prolyl endopeptidase (PEP), rat brain extract (Rattus norvegicus, UniProt O70196)
T1 construct: the supernatant, containing the enzyme, was collected; from tissue; host or cells: rat (Sprague-Dawley, male) whole brain without cerebellum, 40000 g supernatant
T1 sequence (O70196 1-710): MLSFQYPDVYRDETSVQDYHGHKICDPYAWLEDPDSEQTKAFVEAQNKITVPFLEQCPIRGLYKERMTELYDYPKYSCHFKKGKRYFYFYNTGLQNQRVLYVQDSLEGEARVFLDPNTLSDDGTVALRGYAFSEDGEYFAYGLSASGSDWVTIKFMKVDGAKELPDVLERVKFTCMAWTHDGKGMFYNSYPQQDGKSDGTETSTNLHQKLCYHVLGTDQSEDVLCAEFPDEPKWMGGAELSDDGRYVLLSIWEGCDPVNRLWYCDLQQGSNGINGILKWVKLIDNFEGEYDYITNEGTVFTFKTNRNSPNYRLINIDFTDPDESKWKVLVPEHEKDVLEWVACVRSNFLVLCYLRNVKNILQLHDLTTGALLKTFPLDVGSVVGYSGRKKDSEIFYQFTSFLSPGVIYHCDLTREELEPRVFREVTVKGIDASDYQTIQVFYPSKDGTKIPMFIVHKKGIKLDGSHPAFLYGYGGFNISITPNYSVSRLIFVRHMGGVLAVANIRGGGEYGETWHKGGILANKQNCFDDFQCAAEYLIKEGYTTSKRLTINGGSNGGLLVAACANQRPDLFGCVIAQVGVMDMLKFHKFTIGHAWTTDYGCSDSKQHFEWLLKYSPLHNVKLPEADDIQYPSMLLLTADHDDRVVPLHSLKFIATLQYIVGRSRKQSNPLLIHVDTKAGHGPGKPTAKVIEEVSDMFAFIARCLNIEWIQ
Assay: PEP activity measurement on rat brain extract
Format: biochemical, rat (Sprague-Dawley)
Settings: Z-glycyl-prolyl-7-amino-4-methyl-coumarin 62.5 μM, room temperature, 15 min
Procedure: PEP Activity Measurement on Rat Brain Extract:
After removal of the cerebellum whole brain of male (Sprague-Dawley, 180-200 g) rats was homogenized in a double volume of 0.1 M Tris-HCl, 1 mM EDTA buffer, pH=7.5 (PEP buffer). The homogenate was centrifuged for 30 min. at 4° C. at 40000 g and the supernatant, containing the enzyme, was collected. The pellet was resuspended in the same volume of buffer as in the first case and centrifuged again under the same conditions. The two supernatants were pooled and stored in 1 ml aliquots at -70° C. (for at least 3 months). The supernatant was thawn just before activity measurement and diluted in a 1:15 ratio with PEP buffer. […] The inhibitory effect of compounds was tested under the same conditions in the presence of 100 to 0.001 nM compound.

Row | IC50 | Structure (SMILES)
1 | 0.36 nM | Cc1ccc2c(c1)C(=O)N(CCC(=O)N1CSC[C@H]1C(=O)N1CCSC1)C2=O [Example 31]
2 | 0.451 nM | O=C([C@@H]1C[S+]([O-])CN1C(=O)CCCN1C(=O)Nc2ccc([N+](=O)[O-])cc2S1(=O)=O)N1CCCC1 (stereo partly drawn) [Example 171]
3 | 0.278 nM | O=C([C@@H]1CSCN1C(=O)CCN1C(=O)c2cccc3cccc(c23)C1=O)N1CCSC1 [Example 123]

Reference: US6191161A, “Prolylendopeptidase inhibitors” (Chinoin Gyogyszer es Vegyeszeti, priority 1995, dated 2001)
